Like-named read-outs stand apart in the source and are kept apart here.

One test concerns MV4-11 cells. Put plainly: 72 h single agent cytotoxicity, alamar blue assay. It is filed as cell-based. Conditions: Homo sapiens. The method, then:
(§1) In order to complete the combination studies, the cytotoxic effects of individual compounds were determined.
(§2) A dilution series for each drug was prepared in medium. Two hours after seeding, an equal volume of each compound was added at twice the desired concentration and incubated for 72 hours. All treatments were performed in triplicate. At the end of the incubation, a 20% stock of alamar blue (Roche, Lewes, UK) was prepared in media, and an equal volume was added to each well and incubated for three hours. Absorbance was read at 544-595 nm and data was analysed (Excel Fit v4.0) to determine the IC50 (concentration of compound that inhibited cell growth by 50%) for each compound.

The subject of test [1] is HL60 cells. Put plainly: 72 h single agent cytotoxicity, alamar blue assay. It is filed as cell-based. Conditions: Homo sapiens. The method, then: as §1, §2
Test [2] has as its system HL60 cells. Put plainly: Annexin V staining (apoptosis, flow cytometry). Conditions: single agents, azacitidine 72 and 96 hours, CNDAC 48 or 72 hours.
Description: Single agent treatments were also performed as controls. After incubation cells were centrifuged at 500 g for 5 min, washed twice in PBS and once in annexin buffer (10 mM Hepes pH 7.4, 2.5 mM CaCl2, and 140 mM NaCl). Cells were resuspended at 1×10^6/ml and 100 μl was transferred to a 5 ml tube prior to incubation for 10 min in the dark at room temperature with 5 μl of annexin V-FITC stain (Beckton Dickinson) and 10 μl of propidium iodide [50 mg/ml]. Annexin buffer (1 ml) was added and the cells were analysed by flow cytometry. Annexin V positive cells (apoptotic) were designated on the basis of green fluorescence and propidium iodide (dead) positive cells were designated on the basis of red fluorescence.
In test [3] the test system is cell line that is resistant to cytarabine. Conditions: cited from earlier work.

As to `N#C[C@H]1[C@H](O)[C@@H](CO)O[C@H]1n1ccc(N)nc1=O` [CNDAC, 1-(2-C-Cyano-2-deoxy-β-D-arabino-pentafuranosyl)-cytosine], the IC50 in the test with MV4-11 cells was 460 nM; in the test on HL60 cells [1] (HL-60, HL60 cells, 72 hour, read-out: 1×IC50), 133 nM; in the test with HL60 cells [1] (HL-60 cells, read-out: IC50) it was 130 nM. In the test with HL60 cells [2], the “annexin V, proportion of apoptotic cells” value is recorded as “little effect”.
As to `Nc1ncn([C@@H]2O[C@H](CO)[C@@H](O)[C@H]2O)c(=O)n1` [azacitidine, 4-amino-1-β-D-ribofuranosyl-s-triazin-2(1H)-one], the IC50 was 128 nM in the test with HL60 cells [1] (HL-60, HL60 cells, 72 hour, half of the IC50, read-out: 0.5×IC50) and 130 nM in the test on HL60 cells [1] (HL-60 cells, half of the IC50, read-out: 0.5×IC50). Moreover, the “annexin V, proportion of apoptotic cells” value in the test with HL60 cells [2] is recorded as “small increase in the proportion of apoptotic cells”.
As to `Nc1ccn([C@@H]2O[C@H](CO)[C@@H](O)[C@@H]2O)c(=O)n1` [cytarabine], the values for the IC50 in test [3] (after 5-azacitidine (upregulation of dCK)) and in test [3] (before 5-azacitidine) were 0.55 µM and 12.5 µM, respectively.

Values taken from patent US10226478B2, “Dosage regimen for sapacitabine and decitabine in combination for treating acute myeloid leukemia” (Cyclacel Limited, priority 2011, dated 2019).
